Source: patent publication US10221177B2 (HYDRA BIOSCIENCES, INC., priority 2014, dated 2019)

Target: human TRPA1 (Homo sapiens (Human), UniProt O75762)
Test: In vitro inhibition of human TRPA1, whole cell patch configuration
Assay type: cell-based
Conditions: current activation 10 μM AITC, tested concentrations 320 pM to 3.2 μM, read-out: hTRPA1 IC50
Experimental: All currents were recorded in whole-cell configuration using EPC-9 and EPC-10 amplifiers and Patchmaster software (HEKA) or similar. […] The standard bath solution contained 150 mM NaCl, 10 mM HEPES, 10 mM glucose, 4.5 mM KCl, 1 mM EGTA, 3 mM MgCl2, with pH adjusted to 7.4 with NaOH. In some instances, 2 mM CaCl2 was added in place of EGTA and the concentration of MgCl2 was reduced to 1 mM.
Data were collected either by continuous recordings at −60 mV or by applying voltage ramps from a holding potential of −40 mV every 4 s. Continuous recordings were collected at 400 Hz and digitally filtered off-line at 10 Hz for presentation. Voltage ramps were applied from −100 mV or −80 mV to +100 mV or +80 mV over the course of 400 ms, and data were collected at 10 kHz and filtered at 2.9 kHz. Inward and outward currents were analyzed from the ramps at −80 and 80 mV, respectively. Liquid junction potential correction was not used.
Solutions were switched using a gravity-fed continuous focal perfusion system. To achieve rapid temperature changes, two temperature control, and perfusion systems were employed simultaneously. […] Temperatures were confirmed using a thermistor (Warner Instruments, TA-29), with temperatures at the recorded cell estimated to be within +/−2° C. of those reported.
The antagonist effects of compounds of Formula (I) against human TRPA1 (“hTRPA1”) in a whole cell patch configuration were evaluated using the in vitro assay described above.

Sequence of human TRPA1 (O75762 whole entry): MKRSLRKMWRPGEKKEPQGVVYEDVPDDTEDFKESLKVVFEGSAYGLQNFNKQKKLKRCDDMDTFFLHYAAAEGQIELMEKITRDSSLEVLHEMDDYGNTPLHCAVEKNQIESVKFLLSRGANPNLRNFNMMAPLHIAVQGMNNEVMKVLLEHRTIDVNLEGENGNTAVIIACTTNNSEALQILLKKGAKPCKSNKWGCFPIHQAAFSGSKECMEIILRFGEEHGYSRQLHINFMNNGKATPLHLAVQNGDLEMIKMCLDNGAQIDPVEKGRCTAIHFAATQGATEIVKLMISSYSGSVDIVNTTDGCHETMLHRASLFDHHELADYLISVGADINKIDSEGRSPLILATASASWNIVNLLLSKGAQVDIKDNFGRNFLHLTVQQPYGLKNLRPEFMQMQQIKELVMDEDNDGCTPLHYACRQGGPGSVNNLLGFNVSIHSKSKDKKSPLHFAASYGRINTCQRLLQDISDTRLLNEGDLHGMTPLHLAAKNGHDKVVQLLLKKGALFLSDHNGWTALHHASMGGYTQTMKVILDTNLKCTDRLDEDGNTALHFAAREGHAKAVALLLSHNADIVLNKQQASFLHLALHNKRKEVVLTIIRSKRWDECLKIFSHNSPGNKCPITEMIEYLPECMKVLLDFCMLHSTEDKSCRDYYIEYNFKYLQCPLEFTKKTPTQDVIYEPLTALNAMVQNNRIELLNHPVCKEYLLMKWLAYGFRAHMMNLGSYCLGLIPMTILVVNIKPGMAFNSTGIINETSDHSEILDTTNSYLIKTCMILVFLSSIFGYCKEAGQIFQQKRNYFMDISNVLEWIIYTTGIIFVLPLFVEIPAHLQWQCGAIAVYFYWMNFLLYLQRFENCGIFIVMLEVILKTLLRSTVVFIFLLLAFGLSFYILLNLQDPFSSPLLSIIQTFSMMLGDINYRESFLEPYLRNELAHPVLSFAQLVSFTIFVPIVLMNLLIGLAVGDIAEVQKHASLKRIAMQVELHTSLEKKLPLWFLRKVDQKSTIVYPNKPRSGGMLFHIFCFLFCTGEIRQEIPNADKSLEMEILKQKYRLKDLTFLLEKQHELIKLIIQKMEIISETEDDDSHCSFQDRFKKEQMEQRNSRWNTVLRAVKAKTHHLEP

Row | SMILES | IC50
1 | Cc1cc(Cn2c(=O)c3c(ncn3CC(=O)Nc3cccc(N4CC(F)(F)C4)n3)n(C)c2=O)no1 [Compound 197, N-(6-(3,3-difluoroazetidin-1-yl)pyridin-2-yl)-2-(3-methyl-1-((5-methylisoxazol-3-yl)methyl)-2,6-dioxo-2,3-dihydro-1H-purin-7(6H)-yl)acetamide] | 294 nM
2 | CC(=O)Cn1c(=O)c2c(ncn2[C@@H](C)C(=O)Nc2ccnc(-c3ccc(N4CC5C(C4)C5(F)F)nc3)n2)n(C)c1=O (stereo partly drawn) [Compound 69, (2S)—N-(2-(6-(6,6-difluoro-3-azabicyclo[3.1.0]hexan-3-yl)pyridin-3-yl)pyrimidin-4-yl)-2-(3-methyl-2,6-dioxo-1-(2-oxopropyl)-2,3-dihydro-1H-purin-7(6H)-yl)propanamide] | 7 nM
3 | CCC(=O)Cn1c(=O)c2c(ncn2[C@@H](C)C(=O)Nc2cncc(-c3cnc(N4CC5CC5C4)nc3)n2)n(C)c1=O (stereo partly drawn) [Compound 13, (2S)—N-(6-(2-(3-azabicyclo[3.1.0]hexan-3-yl)pyrimidin-5-yl)pyrazin-2-yl)-2-(3-methyl-2,6-dioxo-1-(2-oxobutyl)-2,3-dihydro-1H-purin-7(6H)-yl)propanamide] | 8 nM
4 | CCC(=O)Cn1c(=O)c2c(ncn2[C@@H](C)C(=O)Nc2csc(-c3cnc(C(F)(F)F)c(C)c3)n2)n(C)c1=O [Compound 83, (S)-2-(3-methyl-2,6-dioxo-1-(2-oxobutyl)-2,3-dihydro-1H-purin-7(6H)-yl)-N-(2-(5-methyl-6-(trifluoromethyl)pyridin-3-yl)thiazol-4-yl)propanamide] | 2 nM
5 | C[C@@H](C(=O)Nc1ccnc(-c2ccc(N3CC4CC4C3)nc2)n1)n1cnc2c1c(=O)n(CC#N)c(=O)n2C (stereo partly drawn) [Compound 53, (2S)—N-(2-(6-(3-azabicyclo[3.1.0]hexan-3-yl)pyridin-3-yl)pyrimidin-4-yl)-2-(1-(cyanomethyl)-3-methyl-2,6-dioxo-2,3-dihydro-1H-purin-7(6H)-yl)propanamide] | 14 nM
6 | Cc1cc(Cn2c(=O)c3c(ncn3CC(=O)Nc3ccc4ccccc4n3)n(C)c2=O)no1 [Compound 199, 2-(3-Methyl-1-((5-methylisoxazol-3-yl)methyl)-2,6-dioxo-2,3-dihydro-1H-purin-7(6H)-yl)-N-(quinolin-2-yl)acetamide] | 404 nM
7 | COCC(=O)Cn1c(=O)c2c(ncn2[C@@H](C)C(=O)Nc2cncc(-c3ccc(N4CC5CC5C4)nc3)n2)n(C)c1=O (stereo partly drawn) [Compound 271, (2S)—N-(6-(6-(3-azabicyclo[3.1.0]hexan-3-yl)pyridin-3-yl)pyrazin-2-yl)-2-(1-(3-methoxy-2-oxopropyl)-3-methyl-2,6-dioxo-2,3-dihydro-1H-purin-7(6H)-yl)propanamide] | 5 nM
8 | CCc1cc(NC(=O)Cn2cnc3c2c(=O)n(Cc2cc(C)on2)c(=O)n3C)nc(C(F)(F)F)c1 [Compound 203, N-(4-ethyl-6-(trifluoromethyl)pyridin-2-yl)-2-(3-methyl-1-((5-methylisoxazol-3-yl)methyl)-2,6-dioxo-2,3-dihydro-1H-purin-7(6H)-yl)acetamide] | 1610 nM
9 | Cc1nc(Cn2c(=O)c3c(ncn3[C@@H](C)C(=O)Nc3csc(-c4cnc(C)c(C(F)(F)F)c4)n3)n(C)c2=O)no1 [Compound 163, (S)-2-(3-methyl-1-((5-methyl-1,2,4-oxadiazol-3-yl)methyl)-2,6-dioxo-2,3-dihydro-1H-purin-7(6H)-yl)-N-(2-(6-methyl-5-(trifluoromethyl)pyridin-3-yl)thiazol-4-yl)propanamide] | 2 nM
10 | CCC(=O)Cn1c(=O)c2c(ncn2[C@@H](C)C(=O)Nc2cncc(-c3ccc(N4CC5CC5C4)nc3)n2)n(C)c1=O (stereo partly drawn) [Compound 42, (2S)—N-(6-(6-(3-azabicyclo[3.1.0]hexan-3-yl)pyridin-3-yl)pyrazin-2-yl)-2-(3-methyl-2,6-dioxo-1-(2-oxobutyl)-2,3-dihydro-1H-purin-7(6H)-yl)propanamide] | 4 nM
11 | CC(=O)Cn1c(=O)c2c(ncn2[C@@H](C)C(=O)Nc2cncc(-c3cnc(N4CC5CC5C4)nc3)n2)n(C)c1=O (stereo partly drawn) [Compound 152, (2S)—N-(6-(2-(3-azabicyclo[3.1.0]hexan-3-yl)pyrimidin-5-yl)pyrazin-2-yl)-2-(3-methyl-2,6-dioxo-1-(2-oxopropyl)-2,3-dihydro-1H-purin-7(6H)-yl)propanamide] | 7 nM
12 | C[C@@H](C(=O)Nc1cncc(-c2cnc(C(F)(F)F)nc2)n1)n1cnc2c1c(=O)n(Cc1ccccn1)c(=O)n2C [Compound 8, (S)-2-(3-methyl-2,6-dioxo-1-(pyridin-2-ylmethyl)-2,3-dihydro-1H-purin-7(6H)-yl)-N-(6-(2-(trifluoromethyl)pyrimidin-5-yl)pyrazin-2-yl)propanamide] | 44 nM
13 | CCN(CC)c1ncc(-c2cccc(NC(=O)[C@H](C)n3cnc4c3c(=O)n(Cc3cc(C)on3)c(=O)n4C)n2)cn1 [Compound 27, (S)—N-(6-(2-(diethylamino)pyrimidin-5-yl)pyridin-2-yl)-2-(3-methyl-1-((5-methylisoxazol-3-yl)methyl)-2,6-dioxo-2,3-dihydro-1H-purin-7(6H)-yl)propanamide] | 2 nM
14 | C[C@@H](C(=O)Nc1csc(-c2ccc(N3CC4CC4C3)nc2)n1)n1cnc2c1c(=O)n(CC#N)c(=O)n2C (stereo partly drawn) [Compound 64, (2S)—N-(2-(6-(3-azabicyclo[3.1.0]hexan-3-yl)pyridin-3-yl)thiazol-4-yl)-2-(1-(cyanomethyl)-3-methyl-2,6-dioxo-2,3-dihydro-1H-purin-7(6H)-yl)propanamide] | 2 nM
15 | COCC(=O)Cn1c(=O)c2c(ncn2[C@@H](C)C(=O)Nc2cccc(-c3cnc(C(F)(F)F)nc3)n2)n(C)c1=O [Compound 59, (S)-2-(1-(3-methoxy-2-oxopropyl)-3-methyl-2,6-dioxo-2,3-dihydro-1H-purin-7(6H)-yl)-N-(6-(2-(trifluoromethyl)pyrimidin-5-yl)pyridin-2-yl)propanamide] | 45 nM
16 | Cn1c(=O)n(Cc2ccccn2)c(=O)c2c1ncn2CC(=O)Nc1cccc(-c2cnc(C(F)(F)F)nc2)n1 [Compound 186, 2-(3-methyl-2,6-dioxo-1-(pyridin-2-ylmethyl)-2,3-dihydro-1H-purin-7(6H)-yl)-N-(6-(2-(trifluoromethyl)pyrimidin-5-yl)pyridin-2-yl)acetamide] | 74 nM
17 | C[C@@H](C(=O)Nc1csc(-c2cnc(N3CCC[C@@H]3C(F)(F)F)nc2)n1)n1cnc2c1c(=O)n(CC#N)c(=O)n2C [Compound 50] | 4 nM
18 | CCC(=O)Cn1c(=O)c2c(ncn2[C@@H](C)C(=O)Nc2ccnc(-c3ccc(N4CC5CC5C4)nc3)n2)n(C)c1=O (stereo partly drawn) [Compound 47, (2S)—N-(2-(6-(3-azabicyclo[3.1.0]hexan-3-yl)pyridin-3-yl)pyrimidin-4-yl)-2-(3-methyl-2,6-dioxo-1-(2-oxobutyl)-2,3-dihydro-1H-purin-7(6H)-yl)propanamide] | 4 nM
19 | CNC(=O)Cn1c(=O)c2c(ncn2[C@@H](C)C(=O)Nc2cccc(-c3cnc(C(F)(F)F)nc3)n2)n(C)c1=O [Compound 87, (S)-2-(3-methyl-1-(2-(methylamino)-2-oxoethyl)-2,6-dioxo-2,3-dihydro-1H-purin-7(6H)-yl)-N-(6-(2-(trifluoromethyl)pyrimidin-5-yl)pyridin-2-yl)propanamide] | 258 nM
20 | Cn1c(=O)n(Cc2ccccn2)c(=O)c2c1ncn2CC(=O)Nc1csc(-c2ccc(Cl)cc2)n1 [Compound 190] | 17 nM
21 | CC#CCn1c(=O)c2c(ncn2[C@@H](C)C(=O)Nc2cccc(-c3cnc(N4CC5C(C4)C5(F)F)nc3)n2)n(C)c1=O (stereo partly drawn) [Compound 169, (2S)-2-(1-(but-2-yn-1-yl)-3-methyl-2,6-dioxo-2,3-dihydro-1H-purin-7(6H)-yl)-N-(6-(2-(6,6-difluoro-3-azabicyclo[3.1.0]hexan-3-yl)pyrimidin-5-yl)pyridin-2-yl)propanamide] | 10 nM
22 | CC#CCn1c(=O)c2c(ncn2[C@@H](C)C(=O)Nc2csc(-c3ccc(N4CC5C(C4)C5(F)F)nc3)n2)n(C)c1=O (stereo partly drawn) [Compound 262, (2S)-2-(1-(but-2-yn-1-yl)-3-methyl-2,6-dioxo-2,3-dihydro-1H-purin-7(6H)-yl)-N-(2-(6-(6,6-difluoro-3-azabicyclo[3.1.0]hexan-3-yl)pyridin-3-yl)thiazol-4-yl)propanamide] | 1 nM
23 | CCC(=O)Cn1c(=O)c2c(ncn2[C@@H](C)C(=O)Nc2csc(-c3ccc(N4CC5C(C4)C5(F)F)nc3)n2)n(C)c1=O (stereo partly drawn) [Compound 80, (2S)—N-(2-(6-(6,6-difluoro-3-azabicyclo[3.1.0]hexan-3-yl)pyridin-3-yl)thiazol-4-yl)-2-(3-methyl-2,6-dioxo-1-(2-oxobutyl)-2,3-dihydro-1H-purin-7(6H)-yl)propanamide] | 1 nM
24 | Cc1noc(Cn2c(=O)c3c(ncn3[C@@H](C)C(=O)Nc3csc(-c4cnc(N5CC6CC6C5)nc4)n3)n(C)c2=O)n1 (stereo partly drawn) [Compound 166, (2S)—N-(2-(2-(3-azabicyclo[3.1.0]hexan-3-yl)pyrimidin-5-yl)thiazol-4-yl)-2-(3-methyl-1-((3-methyl-1,2,4-oxadiazol-5-yl)methyl)-2,6-dioxo-2,3-dihydro-1H-purin-7(6H)-yl)propanamide] | 6 nM
